Measured values published in publication PMC4414711 (Chemico-biological interactions, 2014).
Like-named read-outs stand apart in the source and are kept apart here.

Tests used:
AKR1C3 = biological target: T1, AKR1C3 (Homo sapiens, UniProt P42330); details: for IC50 Ratio 1C2:1C3: selectivity, ratio of IC50 values AKR1C2 to AKR1C3
T1 sequence (P42330 1-323): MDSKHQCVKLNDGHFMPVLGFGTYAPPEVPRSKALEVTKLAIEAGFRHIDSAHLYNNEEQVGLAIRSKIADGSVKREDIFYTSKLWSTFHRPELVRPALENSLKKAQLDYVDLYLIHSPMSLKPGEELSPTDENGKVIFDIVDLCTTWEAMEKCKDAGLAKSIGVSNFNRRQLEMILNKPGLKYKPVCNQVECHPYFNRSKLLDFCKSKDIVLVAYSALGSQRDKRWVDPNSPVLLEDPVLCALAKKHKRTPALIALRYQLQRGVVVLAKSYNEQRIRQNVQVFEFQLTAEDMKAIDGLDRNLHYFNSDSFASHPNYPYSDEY

AKR1C2 = biological target: T2, AKR1C2 (Homo sapiens, UniProt P52895)
T2 sequence (P52895 1-323): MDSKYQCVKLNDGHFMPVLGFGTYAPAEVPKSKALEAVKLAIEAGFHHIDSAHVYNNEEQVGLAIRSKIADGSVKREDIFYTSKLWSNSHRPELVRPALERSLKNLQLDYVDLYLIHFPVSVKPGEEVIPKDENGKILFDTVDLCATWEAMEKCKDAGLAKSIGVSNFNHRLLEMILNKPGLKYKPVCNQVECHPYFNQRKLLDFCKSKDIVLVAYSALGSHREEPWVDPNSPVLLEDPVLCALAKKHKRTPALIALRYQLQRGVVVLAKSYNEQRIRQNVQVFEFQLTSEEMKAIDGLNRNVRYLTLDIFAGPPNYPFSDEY

[1] = read-out: 1C3 IC50, recombinant AKR1C3, S-tetralol 165 μM (= Km), NADP+
[2] = read-out: 1C2 IC50, recombinant AKR1C2, S-tetralol 15 μM (= Km), NADP+

| decrease of the inhibitory selectivity (AKR1C3; in comparison to compound 8) | IC50 (AKR1C3; [1]) | IC50 Ratio 1C2:1C3 (AKR1C3) | IC50 (AKR1C2; [2]) | IC50 (AKR1C3) | IC50 (AKR1C2) | increase of the inhibitory selectivity (AKR1C3; in comparison to compound 8) | further decrease of inhibitory potency for AKR1C3 (AKR1C3; relative to compound 4) | further decrease of inhibitory potency for AKR1C2 (AKR1C2; relative to compound 4) | Compound |
| --- | --- | --- | --- | --- | --- | --- | --- | --- | --- |
| 1.7 fold | 2.3 µM | 11 | 25 µM |  |  |  |  |  | O=C(O)C=Cc1ccc(OC(=O)CCc2ccccc2)cc1 (mixture of isomers) [Compound 10, (Z/E)-3-(4-((3-phenylpropanoyl)oxy)phenyl)acrylic acid] |
|  | 632 µM | 0.04 | 27 µM |  |  |  |  |  | CC(C)(C)OC(=O)C=Cc1ccc(OC(=O)CCc2ccccc2)cc1 (mixture of isomers) [Compound 13, (Z/E)-tert-butyl 3-(4-(3-phenylpropanoyloxy)phenyl)acrylate] |
|  |  | 20 |  | 6.3 µM | 127 µM |  |  |  | O=C(O)/C=C/c1ccc(OC(=O)c2ccccc2)cc1 [Compound 11, (2E)-3-[4-(benzoyloxy)phenyl]prop-2-enoic acid] |
|  |  | 1 |  | 68 µM | 88 µM |  |  |  | O=C(O)/C=C/c1ccc(OC(=O)c2ccncc2)cc1 [Compound 12, (2E)-3-[4-(pyridine-4-carbonyloxy)phenyl]prop-2-enoic acid] |
|  | 86 µM | 5 | 389 µM |  |  |  |  |  | O=C(O)/C=C/c1cccc(O)c1 [Compound 15, m-coumaric acid] |
|  | 21 µM | 20 | 421 µM |  |  |  |  |  | COc1cc(/C=C/C(=O)O)ccc1O [Compound 16, ferulic acid] |

Second part, the compound before the results:

| Compound | decrease of the inhibitory selectivity (AKR1C3; in comparison to compound 8) | IC50 (AKR1C3; [1]) | IC50 Ratio 1C2:1C3 (AKR1C3) | IC50 (AKR1C2; [2]) | IC50 (AKR1C3) | IC50 (AKR1C2) | increase of the inhibitory selectivity (AKR1C3; in comparison to compound 8) | further decrease of inhibitory potency for AKR1C3 (AKR1C3; relative to compound 4) | further decrease of inhibitory potency for AKR1C2 (AKR1C2; relative to compound 4) |
| --- | --- | --- | --- | --- | --- | --- | --- | --- | --- |
| CC(C)=CCc1cc(/C=C/C(=O)OC(C)(C)C)ccc1OC(=O)CCc1ccccc1 [Compound 7, tert-butyl(2E)-3-[3-(3-methylbut-2-en-1-yl)-4-[(3-phenylpropanoyl)oxy]phenyl]prop-2-enoate] |  |  | 0.3 |  | 607 µM | 153 µM |  |  |  |
| O=C(O)/C=C/c1ccc(OC(=O)CCc2ccccc2)cc1 [Compound 8, (2E)-3-prop-2-enoic acid] |  | 4.7 µM | 19 | 88 µM |  |  |  |  |  |
| O=C(O)/C=C/c1cccc(OC(=O)CCc2ccccc2)c1 [Compound 9, (E)-3-(3-((3-phenylpropanoyl)oxy)phenyl)acrylic acid] |  |  | 28 |  | 0.96 µM | 27 µM | 1.5 fold |  |  |
| O=C(O)/C=C/c1ccc(O)cc1 [Compound 14, p-coumaric acid] |  |  | 7 |  | 199 µM | 1300 µM |  |  |  |
| (2E)-3-(3,3-dimethyl-3,4-dihydro-2H-1-benzopyran-6-yl)prop-2-enoate [Compound 5] |  | 21 µM | 1 | 14 µM |  |  |  | 2 fold | 2 fold |
